Data as given in patent US20060264388A1, “Method for treating liver cancer by intrahepatic administration of nemorubicin” (priority 2003, published 2006).

Assays:
human liver tumor = assay: Efficacy: tumor response, intrahepatic artery nemorubicin q8wk vs q6wk; format: in vivo
Procedure: (§1) The objective of the study was to shorten the time interval between treatment administrations from every 8 weeks (q8wk) of the protocol as reported in WO 00/15203 to every 6 weeks (q6wk). This was done in the attempt of improving the therapeutic potential of nemorubicin treatment through an increase of the dose intensity of the therapy, simultaneously safeguarding patient safety.
(§2) Overall, 13 patients were treated with the q8wk schedule (total 25 cycles administered; doses ranged from 200 to 800 mcg/m^2), and 11 patients were treated with the q6wk schedule (total 32 cycles administered; doses were 200 and 600 mcg/m^2).

[1] = test system: liver metastases from M5076 murine; settings: M5076 murine reticulosarcoma; cited from earlier work
[2] = test system: liver metastases from M5076 murine fibrosarcoma; settings: cited from earlier work
[3] = test system: tumor cells resistant to anthracyclines and presenting the mdr phenotype; settings: cited from earlier work
[4] = test system: patients with liver cancer; assay: Hematological toxicity - Neutrophils, worst CTC Grade by cycle, intrahepatic artery nemorubicin q8wk vs q6wk; format: in vivo, human
Procedure: as §1, §2
The NCI-Common Tosicity Criteria grading system (CTC Grade), Version 2.0, was used to report toxicities.
A slight cumulative effect (i.e., increase in frequency but not in severity) was observed after repeated cycles for leucopenia and neutropenia (Tables 2 and 3), mainly with the q8wk schedule.

[5] = 200 mcg/m^2 q6wk, All cycles, 11 evaluable cycles
[6] = 200 mcg/m^2 q6wk, Cycle 1, 5 evaluable cycles
[7] = 200 mcg/m^2 q6wk, Cycles > 1, 6 evaluable cycles
[8] = 200 mcg/m^2 q8wk, All cycles, 5 evaluable cycles
[9] = 200 mcg/m^2 q8wk, Cycle 1, 3 evaluable cycles
[10] = 200 mcg/m^2 q8wk, Cycles > 1, 2 evaluable cycles
[11] = 400 mcg/m^2 q8wk, All cycles, 4 evaluable cycles
[12] = 400 mcg/m^2 q8wk, Cycle 1, 3 evaluable cycles
[13] = 600 mcg/m^2 q6wk, All cycles, 18 evaluable cycles
[14] = 600 mcg/m^2 q6wk, Cycle 1, 6 evaluable cycles
[15] = 600 mcg/m^2 q6wk, Cycles > 1, 12 evaluable cycles
[16] = 600 mcg/m^2 q8wk, All cycles, 8 evaluable cycles
[17] = 600 mcg/m^2 q8wk, Cycles > 1, 4 evaluable cycles
[18] = 800 mcg/m^2 q8wk, All cycles, 4 evaluable cycles
[19] = 800 mcg/m^2 q8wk, Cycle 1, 3 evaluable cycles

## COc1cccc2c1C(=O)c1c(O)c3c(c(O)c1C2=O)C[C@@](O)(C(=O)CO)C[C@@H]3O[C@H]1C[C@H](N2CCO[C@H](OC)C2)[C@H](O)[C@H](C)O1.Cl [nemorubicin, 3′desamino-3′[2(S)methoxy-4-morpholinyl]doxorubicin-hydrochloride]
Human liver tumor; 200 mcg/m^2 q6wk, one patient AJCC stage II (confirmed PR), CT scan 5 weeks after going off study
  lesion area reduction versus baseline: 70%
Human liver tumor; 200 mcg/m^2 q6wk, one patient AJCC stage II (confirmed PR), after 2 cycles
  tumor shrinkage versus baseline: 64%
Human liver tumor; 200 mcg/m^2 q8wk, one patient AJCC stage II (unconfirmed PR)
  duration of PR in the original lesion (right lobe): ≥ 12 months
Human liver tumor; 200 mcg/m^2 q8wk, one patient AJCC stage II (unconfirmed PR), after 2 cycles
  decrease in tumor area versus baseline: 85.9%
Human liver tumor; 200 mcg/m^2 q8wk, one patient AJCC stage III (confirmed PR), after 1 cycle
  shrinkage of measurable lesion versus baseline: 78.45%
Human liver tumor; 200 mcg/m^2 q8wk, one patient AJCC stage III (confirmed PR), second cycle
  lesion area reduction versus baseline: 95.3%
Human liver tumor; 600 mcg/m^2 q6wk, one patient AJCC stage III (confirmed PR), 5 cycles
  duration of PR: ≥ 8 months
Human liver tumor; 600 mcg/m^2 q6wk, one patient AJCC stage III (confirmed PR), cycle 3
  reduction of measurable lesion area versus baseline: 78.2%
Human liver tumor; 600 mcg/m^2 q6wk, one patient AJCC stage III (confirmed PR), first treatment cycle
  reduction of the measurable lesion area: 48.4%
Human liver tumor; 600 mcg/m^2 q8wk, one patient stage III (unconfirmed PR)
  duration of PR in the original lesion (right lobe): about 3 months
Human liver tumor; 600 mcg/m^2 q8wk, one patient stage III (unconfirmed PR), after one cycle
  decrease of lesion area versus baseline: 54.3%
Human liver tumor; 600 mcg/m^2 q8wk, one patient stage III (unconfirmed PR), cycle 2
  decrease in tumor area versus baseline, perfused right lobe: 68.2%
Human liver tumor; 800 mcg/m^2 q8wk, one patient AJCC stage III (unconfirmed PR), after 3 cycles
  decrease of the tumor area versus baseline: 52%
Human liver tumor; q6wk schedule
  confirmed PR out of treated patients: two confirmed PR out of 11 treated patients
Human liver tumor; q8wk schedule
  confirmed PR out of treated patients: one confirmed PR out of 13 treated patients
[1]
  activity against liver metastases, oral versus i.v.: higher after oral administration as compared to the i.v. route
[2]; administered orally
  efficacy on liver metastases versus solid primary: more effective on the liver metastases than on the solid primary
[2]; injectable formulation
  efficacy relative to oral formulation: less effective
[2]; oral formulation, administered daily for 5 days
  best result on survival: doubling of survival time
[3]
  activity in vitro and in vivo: active
[4]; [5]
  Neutrophils, worst CTC Grade by cycle: All Grades (%): 4 (36%) (%)
  Neutrophils, worst CTC Grade by cycle: Grade 1-2 (%): 4 (36%) (%)
[4]; [6]
  Neutrophils, worst CTC Grade by cycle: All Grades (%): 2 (40%) (%)
  Neutrophils, worst CTC Grade by cycle: Grade 1-2 (%): 2 (40%) (%)
[4]; [7]
  Neutrophils, worst CTC Grade by cycle: All Grades (%): 2 (33%) (%)
  Neutrophils, worst CTC Grade by cycle: Grade 1-2 (%): 2 (33%) (%)
[4]; [8]
  Neutrophils, worst CTC Grade by cycle: All Grades (%): 3 (60%) (%)
  Neutrophils, worst CTC Grade by cycle: Grade 1-2 (%): 3 (60%) (%)
[4]; [9]
  Neutrophils, worst CTC Grade by cycle: All Grades (%): 1 (33%) (%)
  Neutrophils, worst CTC Grade by cycle: Grade 1-2 (%): 1 (33%) (%)
[4]; [10]
  Neutrophils, worst CTC Grade by cycle: All Grades (%): 2 (100%) (%)
  Neutrophils, worst CTC Grade by cycle: Grade 1-2 (%): 2 (100%) (%)
[4]; [11]
  Neutrophils, worst CTC Grade by cycle: All Grades (%): 1 (25%) (%)
  Neutrophils, worst CTC Grade by cycle: Grade 1-2 (%): 1 (25%) (%)
[4]; [12]
  Neutrophils, worst CTC Grade by cycle: All Grades (%): 1 (33%) (%)
  Neutrophils, worst CTC Grade by cycle: Grade 1-2 (%): 1 (33%) (%)
[4]; [13]
  Neutrophils, worst CTC Grade by cycle: All Grades (%): 3 (17%) (%)
  Neutrophils, worst CTC Grade by cycle: Grade 1-2 (%): 3 (17%) (%)
[4]; [14]
  Neutrophils, worst CTC Grade by cycle: All Grades (%): 1 (17%) (%)
  Neutrophils, worst CTC Grade by cycle: Grade 1-2 (%): 1 (17%) (%)
[4]; [15]
  Neutrophils, worst CTC Grade by cycle: All Grades (%): 2 (17%) (%)
  Neutrophils, worst CTC Grade by cycle: Grade 1-2 (%): 2 (17%) (%)
[4]; [16]
  Neutrophils, worst CTC Grade by cycle: All Grades (%): 2 (25%) (%)
  Neutrophils, worst CTC Grade by cycle: Grade 1-2 (%): 2 (25%) (%)
[4]; [17]
  Neutrophils, worst CTC Grade by cycle: All Grades (%): 2 (50%) (%)
  Neutrophils, worst CTC Grade by cycle: Grade 1-2 (%): 2 (50%) (%)
[4]; [18]
  Neutrophils, worst CTC Grade by cycle: All Grades (%): 1 (25%) (%)
  Neutrophils, worst CTC Grade by cycle: Grade 1-2 (%): 1 (25%) (%)
[4]; [19]
  Neutrophils, worst CTC Grade by cycle: All Grades (%): 1 (33%) (%)
  Neutrophils, worst CTC Grade by cycle: Grade 1-2 (%): 1 (33%) (%)
